Experimental data as given in patent US8000781B2, “Method of evaluating effect of prolonging QT interval in electrocardiogram” (Eisai R&D Management Co., Ltd., priority 2005, dated 2011).
Like-named read-outs stand apart in the source and are kept apart here.

What was measured:
[1] = test system: hamster under mixed anesthesia with pentobarbital and xylazine; conditions: n=5; for Influence on the QRS interval / Influence on the RR interval: over the doses tested
anesthetized dogs = conditions: calculated on the basis of the results of the cited report; cited from earlier work

## COc1cc(N)c(Cl)cc1C(=O)NC1CCN(CCCOc2ccc(F)cc2)CC1OC (centres unmarked) [cisapride]
[1]; 100 μg/kg iv
  Degree of prolongation of the QT interval: about 20%
[1]; iv, doses tested 1, 10 and 100 μg/kg
  Influence on the PQ interval: did not significantly affect
[1]; iv
  Influence on the QRS interval: did not significantly affect
  Influence on the RR interval: did not significantly affect
Anesthetized dogs
  Single dose for intravenous administration providing 10% of prolongation of the duration of monophasic action potential: 0.1 mg/kg

## CC(C)(C)c1ccc(C(O)CCCN2CCC(C(O)(c3ccccc3)c3ccccc3)CC2)cc1 (centres unmarked) [terfenadine]
[1]; 1 mg/kg iv
  Degree of prolongation of the QT interval: about 20%
[1]; iv
  Influence on the QRS interval: did not significantly affect
  Influence on the RR interval: did not significantly affect
